This is an account of results in patent US12102644B2, “Compounds and methods of promoting myelination” (Case Western Reserve University, priority 2019, dated 2024).

One may read the IC50 as the midpoint of a concentration-inhibition curve. Read a high IC50 as weaker potency.

Data set [1] concerns the target T1, rat CYP51 (Rattus norvegicus, UniProt Q64654).
T1 sequence (Q64654 1-503): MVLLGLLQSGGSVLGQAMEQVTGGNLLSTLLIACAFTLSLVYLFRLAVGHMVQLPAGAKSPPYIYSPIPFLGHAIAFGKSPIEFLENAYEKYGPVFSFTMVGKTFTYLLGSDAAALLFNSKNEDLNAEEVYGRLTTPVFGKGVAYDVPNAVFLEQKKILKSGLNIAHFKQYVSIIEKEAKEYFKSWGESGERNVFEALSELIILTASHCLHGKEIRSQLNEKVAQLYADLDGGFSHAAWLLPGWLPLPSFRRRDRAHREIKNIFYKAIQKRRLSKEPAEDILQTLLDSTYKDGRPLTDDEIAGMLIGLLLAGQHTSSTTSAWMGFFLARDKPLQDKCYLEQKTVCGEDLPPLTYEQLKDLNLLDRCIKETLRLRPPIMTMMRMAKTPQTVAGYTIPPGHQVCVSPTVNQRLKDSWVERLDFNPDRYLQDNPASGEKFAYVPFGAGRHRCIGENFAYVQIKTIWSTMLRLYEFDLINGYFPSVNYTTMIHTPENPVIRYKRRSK
Conditions: rat CYP51 enzymatic activity.

Data set [2] concerns mouse epiblast stem cell-derived OPCs. In words: In vitro OPC differentiation assay (percentage of MBP+ oligodendrocytes, high-content imaging). It counts as cell-based. Conditions: for formation of MBP+ oligodendrocytes in combination with ketoconazole: co-treatment with ketoconazole 2.5 μM. The method, then:
To rigorously assess effects of small molecule and genetic treatments on OPCs, all treatments were assayed in two batches of epiblast stem cell-derived OPCs, and key results were confirmed using mouse primary OPCs. OPCs were generated from two separate EpiSC lines, EpiSC5 (giving rise to OPC-5 OPCs) and 12901 (giving rise to OPC-1 OPCs). EpiSC-derived OPCs were obtained using in vitro differentiation protocols and culture conditions described previously. To ensure uniformity throughout all in vitro screening experiments, EpiSC-derived OPCs were sorted to purity by fluorescence activated cell sorting at passage five with conjugated CD 140a-APC (eBioscience, 17-1401; 1:80) and NG2-AF488 (Millipore, AB[…]; 1:100) antibodies. Sorted batches of OPCs were expanded and frozen down in aliquots. OPCs were thawed into growth conditions for one passage before use in further assays. Cultures were regularly tested and shown to be mycoplasma free. EpiSC-derived OPCs were grown and expanded in poly-ornithine (PO) and laminin-coated flasks with growth medium (DMEM/F12 supplemented with N2-MAX (R&D Systems), B-27 (ThermoFisher), GlutaMax (Gibco), FGF2 ([…], R&D systems, 233-FB-025) and PDGF-AA ([…], R&D systems, 233-AA-050) before harvesting for plating. The cells were seeded onto poly-D-[…]-well CellCarrier plates (PerkinElmer) coated with laminin (Sigma, L2020; 15 μg/ml) using multi-channel pipet. For the experiment, 800,000 cells/mL stock in differentiation medium (DMEM/F12 supplemented with N2-MAX and B-27) was prepared and stored on ice for 2 h. Then, 40,000 cells were seeded per well in differentiation medium and allowed to attach for 30 min before addition of drug. For dose-response testing of all molecules except sterols, a 1000× compound stock in dimethyl sulphoxide (DMSO) was added to assay plates with 0.1 μL solid pin multi-blot replicators (V & P Scientific; VP 409), resulting in a final primary screening concentration of 1×. Sterols were added to cells as an ethanol solution (0.2% final ethanol concentration). Positive control wells (ketoconazole, 2.5 μM) and DMSO vehicle controls were included in each assay plate. Cells were incubated under standard conditions (37° C., 5% CO2) for 3 days and fixed with 4% paraformaldehyde (PFA) in phosphate buffered saline (PBS) for 20 min. Fixed plates were washed with PBS (200 μL per well) twice, permeabilized with 0.1% Triton X-100 and blocked with 10% donkey serum (v/v) in PBS for 40 min. Then, cells were labelled with MBP antibodies (Abcam, ab7349; 1:200) for 16 h at 4° C. followed by detection with Alexa Fluor conjugated secondary antibodies (1:500) for 45 min. Nuclei were visualized by DAPI staining (Sigma; 1 μg/ml). During washing steps, PBS was added using a multi-channel pipet and aspiration was performed using Biotek EL406 washer dispenser (Biotek) equipped with a 96-well aspiration manifold. Plates were imaged on the Operetta High Content Imaging and Analysis system (PerkinElmer) and a set of 6 fields captured from each well resulting in an average of 1200 cells being scored per well. Analysis (PerkinElmer Harmony and Columbus software) began by identifying intact nuclei stained by DAPI; that is, those traced nuclei that were larger than 300 μm^2 in surface area. Each traced nucleus region was then expanded by 50% and cross-referenced with the […] (MBP) stain to identify oligodendrocyte nuclei, and from this the percentage of oligodendrocytes was calculated. In some experiments, the total process length of MBP^+ oligodendrocytes was calculated as previously described.

A further data set addresses T2, EBP (Mus musculus, UniProt P70245).
T2 construct: active EBP was obtained from mouse microsomes; from tissue
T2 sequence (P70245 1-230): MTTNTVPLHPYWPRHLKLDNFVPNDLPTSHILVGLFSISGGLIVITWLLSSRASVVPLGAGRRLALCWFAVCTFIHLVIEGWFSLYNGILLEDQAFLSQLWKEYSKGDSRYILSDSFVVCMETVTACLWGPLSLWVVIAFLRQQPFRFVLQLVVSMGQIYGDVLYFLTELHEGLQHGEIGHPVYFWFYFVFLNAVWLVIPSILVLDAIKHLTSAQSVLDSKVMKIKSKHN
In words: EBP enzymatic assay (GC/MS). The format is biochemical. The note with it: small molecules 10 μM, zymostenol 25 μM, 2 h.

The subject of data set [3] is sterol levels in OPCs (cholesterol biosynthesis pathway). In words: GC/MS-based sterol profiling in OPCs. It counts as cell-based, mouse.
The target of data set [4] is T1, rat CYP51. In words: biochemical.
[5] abbreviates: 72 h, differentiation-permissive conditions.

“Also recorded” adds a separate entry of the source. Read-outs that look alike come from different tables or passages of the source.

On to `CC(=O)N1CCN(c2ccc(OC[C@@H]3CO[C@](Cn4ccnc4)(c4ccc(Cl)cc4Cl)O3)cc2)CC1` (stereo in doubt) [R-trans-Ketoconazole], for which the “inhibition of mammalian CYP51 in vitro” value on rat CYP51 [1] is given as “strikingly less effective at inhibiting mammalian CYP51”.

In the case of `CC(C)CCC[C@@H](C)[C@H]1CC[C@H]2C3=C(CC[C@]12C)[C@@]1(C)CC[C@H](O)CC1=CC3` [8,9-dehydrocholesterol], the “formation of MBP+ oligodendrocytes from OPCs” value (from here on “formation … from OPCs”) in data set [2] (setting [5]) was “robustly enhanced oligodendrocyte formation”.

In the case of `CC(C)CCC[C@@H](C)[C@H]1CC=C2C3=C(CC[C@@]21C)[C@@]1(C)CC[C@H](O)C[C@@H]1CC3` [14-dehydrozymostenol, cholesta-8,14-dien-j-ol], the “formation … from OPCs” value in data set [2] (setting [5]) is “enhanced the formation of MBP^+ oligodendrocytes”.

Consider `Cc1cc(C)c(CNC(=O)c2cc(-c3ccc(CN4CCOCC4)cc3)cc3c2cnn3C2CCCC2)c(=O)[nH]1` [EPZ005687], for which the “formation … from OPCs” value in data set [2] (setting [5]) is “robustly enhanced oligodendrocyte formation”. Further, the “inhibition of EBP enzymatic activity” value against EBP is “directly inhibiting EBP enzymatic activity”. The “accumulation of sterol intermediates in OPCs (enzyme inhibition in OPCs, e.g. EBP)” value in data set [3] (24 h treatment) is “uniquely caused accumulation of zymosterol and zymostenol in OPCs”.

On to `CC(C)=CCC[C@@H](C)[C@H]1CC=C2C3=C(CC[C@@]21C)[C@@]1(C)CC[C@H](O)C(C)(C)[C@@H]1CC3` [FF-MAS, 4,4-dimethyl-5α-cholesta-8,14,24-trien-3β-ol], for which the “formation … from OPCs” value in data set [2] (setting [5]) is recorded as “enhanced oligodendrocyte formation; also recorded: maximally potent enhancers of oligodendrocyte formation among the 8,9-unsaturated sterols tested”.

In the case of `CC(C)CCC[C@@H](C)[C@H]1CC=C2C3=C(CC[C@@]21C)[C@@]1(C)CC[C@H](O)C(C)(C)[C@@H]1CC3` [MAS-412], in data set [2] (setting [5]), the “formation … from OPCs” value is “enhanced oligodendrocyte formation; also recorded: optimal efficacy and potency among all canonical cholesterol biosynthesis intermediates evaluated”.

Regarding `CC(C)CCC[C@@H](C)[C@H]1CC[C@H]2C3=C(CC[C@]12C)[C@@]1(C)CC[C@H](O)C(C)(C)[C@@H]1CC3` [MAS-414], the “formation … from OPCs” value in data set [2] (setting [5]) was “enhanced oligodendrocyte formation; also recorded: optimal efficacy and potency among all canonical cholesterol biosynthesis intermediates evaluated”.

With `C=CCN(C)CCCCCCOc1ccc(C(=O)c2ccc(Br)cc2)c(F)c1` [Ro 48-8071], the “formation … from OPCs” value in data set [2] (setting [5]) is reported as “little impact”. The “total cell number (DAPI+ nuclei)” value in data set [2] (3 d differentiation assay) was “little impact”. Further, in data set [2] (72 h), the “formation of MBP+ oligodendrocytes in combination with ketoconazole” value (“formation … with ketoconazole” below) is reported as “completely suppressed ketoconazole's pro-myelinating effects”. Also, the “reduction in lanosterol levels relative to ketoconazole alone” value in data set [3] (co-treatment ketoconazole 2.5 μM + Ro 48-8071 11 nM, 24 h) is on record as 90%.

Turning to `CC(C)=CCC[C@@H](C)[C@H]1CC[C@H]2C3=C(CC[C@]12C)[C@@]1(C)CC[C@H](O)C(C)(C)C1CC3` (stereo partly drawn) [T-MAS], the “formation … from OPCs” value in data set [2] (setting [5]) is recorded as “enhanced oligodendrocyte formation”.

With `CN1[C@@H]2CC[C@H]1C[C@@H](OC(c1ccccc1)c1ccccc1)C2` [benztropine, Benztropine], in data set [2] (72 h), the “formation … with ketoconazole” value is “did not enhance differentiation above levels seen for ketoconazole alone”. For the same compound, the “inhibition of EBP enzymatic activity” value against EBP is “clear inhibition”. The “accumulation of sterol intermediates in OPCs (enzyme inhibition in OPCs, e.g. EBP)” value in data set [3] (24 h treatment) is “induced accumulation of zymostenol and zymosterol and decreased basal sterol levels”.

Consider `C=C(c1ccc(C(=O)O)cc1)c1cc2c(cc1C)C(C)(C)CCC2(C)C` [bexarotene, Bexarotene], for which, in data set [3] (24 h treatment), the “accumulation of sterol intermediates in OPCs (enzyme inhibition in OPCs, e.g. EBP)” value is on record as “minimal effects on sterol levels”.

With `CC(C)CCC[C@@H](C)[C@H]1CC[C@H]2[C@@H]3CC=C4C[C@@H](O)CC[C@]4(C)[C@H]3CC[C@]12C` [cholesterol, Cholesterol], the “formation … from OPCs” value in data set [2] (setting [5]) is given as “ineffective; also recorded: had no effect on OPCs”.

On to `CN1CCC[C@@H]1CCO[C@](C)(c1ccccc1)c1ccc(Cl)cc1` [clemastine, Clemastine], for which, in data set [2] (72 h), the “formation … with ketoconazole” value is reported as “did not enhance differentiation above levels seen for ketoconazole alone”.

On rat CYP51 [4], `Clc1ccccc1C(c1ccccc1)(c1ccccc1)n1ccnc1` [clotrimazole, Clotrimazole] registered an IC50 of 0.3 to 0.7 µM.

For `C[C@]12CC[C@@H]3c4ccc(O)cc4C[C@@H](CCCCCCCCC[S+]([O-])CCCC(F)(F)C(F)(F)F)[C@H]3[C@@H]1CC[C@@H]2O` (stereo partly drawn) [fulvestrant, Fulvestrant], in data set [3] (2 μM, 24 h), the “sterol profile in OPCs at the screening dose (enzyme targeted)” value was “targeted CYP51”.

`OCCOCCN1CCN(C(c2ccccc2)c2ccc(Cl)cc2)CC1` (stereo not drawn) [hydroxyzine, Hydroxyzine]: the “inhibition of EBP enzymatic activity” value at EBP is on record as “directly inhibiting EBP enzymatic activity”.

As for `CC(C)=CCC[C@@H](C)[C@H]1CC[C@@]2(C)C3=C(CC[C@]12C)[C@@]1(C)CC[C@H](O)C(C)(C)[C@@H]1CC3` [lanosterol, Lanosterol], in data set [2] (setting [5]), the “formation … from OPCs” value was “enhanced formation of MBP^+ oligodendrocytes in a dose-responsive fashion”.

For `N[C@@H](Cc1cc(I)c(Oc2ccc(O)c(I)c2)c(I)c1)C(=O)O` [liothyronine, Liothyronine], in data set [2] (liothyronine 3 μM combined with sterol-modulating treatments, 72 h), the “formation of oligodendrocytes in combination with liothyronine” value was “additive effects on oligodendrocyte formation”. Also, the “accumulation of sterol intermediates in OPCs (enzyme inhibition in OPCs, e.g. EBP)” value in data set [3] is reported as “minimal effects on sterol levels”.

As to `OCCOc1ccc(/C(=C(/CCCl)c2ccccc2)c2ccccc2)cc1` [ospemifine, Ospemifene], the “formation … from OPCs” value in data set [2] is listed as “had no effect on OPC differentiation”. Besides, in data set [3], the “accumulation of sterol intermediates in OPCs (enzyme inhibition in OPCs, e.g. EBP)” value was “did not inhibit EBP”.

With `CN(C)CCOc1ccc(/C(=C(/CCCl)c2ccccc2)c2ccccc2)cc1` [toremifene, Toremifene], the “formation … from OPCs” value in data set [2] (setting [5]) is given as “enhanced MBP^+ oligodendrocyte generation over a wide dose range”. The “accumulation of sterol intermediates in OPCs (enzyme inhibition in OPCs, e.g. EBP)” value in data set [3] (24 h treatment) is listed as “inhibited EBP”.

`CC(C)CCC[C@@H](C)[C@H]1CC[C@H]2C3=C(CC[C@]12C)[C@@]1(C)CC[C@H](O)C[C@@H]1CC3` [zymostenol, Zymostenol]: in data set [2] (setting [5]), the “formation … from OPCs” value is “enhanced the formation of MBP^+ oligodendrocytes; also recorded: enhanced oligodendrocyte formation”.

Consider methyl-β-cyclodextrin, for which the “formation … from OPCs” value in data set [2] (setting [5]) is given as “had no effect on oligodendrocyte formation”. Further, the “cholesterol levels in OPCs” value in data set [3] (methyl β-cyclodextrin 1 mM for 30 min) is “reductions in cholesterol levels comparable to pathway inhibitor treatment”.
